Source: the supplement of paper PMC10307832

Legend:
Test in all cases: relative viability (nuclei count vs DMSO), 5 days (fraction); higher = more cells survive
[1] = compound: C1CNCCC1C2=CC(=NN2)C3=CC=NC=C3 + Cc1cc(Nc2cc(N3CCN(C)CC3)nc(Sc3ccc(NC(=O)C4CC4)cc3)n2)n[nH]1 [Tozasertib] (partner 0.1 µM)
How it was run: (§1)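 A single step with final 0.05% Triton X-100, 1% formaldehyde and 1 ug/ml Hoechst fixed the cells and stained nuclei 5 days after treatment. Lung cancer cell lines in 1536-well plates had been treated by pin tool the day after seeding with one drug alone or a fixed anchor-drug dose plus five library-drug doses (not always all listed) in √10 steps, and nuclei were counted on 4× images. Relative viability is the ratio of nuclei in treated wells to nuclei in vehicle wells, taken as the median of duplicate plates.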

[2] = compound: C[C@@H](N)c1ccc(C(=O)Nc2ccnc3[nH]ccc23)cc1 + CCNC(=O)c1noc(-c2cc(C(C)C)c(O)cc2O)c1-c1ccc(CN2CCOCC2)cc1 [Luminespib] (partner 0.01 µM)
How it was run: as §1

[3] = compound: C[C@@H](N)c1ccc(C(=O)Nc2ccnc3[nH]ccc23)cc1 + Cc1cc(Nc2cc(N3CCN(C)CC3)nc(Sc3ccc(NC(=O)C4CC4)cc3)n2)n[nH]1 [Tozasertib] (partner 0.1 µM)
How it was run: as §1

Tanzisertib + AZD7762 = compound: O[C@H]1CC[C@H](Nc2ncc3nc(Nc4c(F)cc(F)cc4F)n([C@H]4CCOC4)c3n2)CC1 [Tanzisertib] + NC(=O)Nc1cc(-c2cccc(F)c2)sc1C(=O)N[C@H]1CCCNC1 [AZD7762] (partner 0.2 µM)
How it was run: as §1

Cell Line: NCI-H647
- relative viability ([1]; first compound 0.08 µM): 0.263
- relative viability ([1]; first compound 0.8 µM): 0.413
- relative viability ([1]; first compound 2.53 µM): 0.297
- relative viability ([1]; first compound 8 µM): 0.263
- relative viability ([2]; first compound 0.04 µM): 0.133
- relative viability ([2]; first compound 0.1265 µM): 0.228
- relative viability ([2]; first compound 0.4 µM): 0.139
- relative viability ([2]; first compound 1.265 µM): 0.14
- relative viability ([2]; first compound 4 µM): 0.0908
- relative viability ([3]; first compound 0.04 µM): 0.322
- relative viability ([3]; first compound 0.1265 µM): 0.227
- relative viability ([3]; first compound 0.4 µM): 0.426
- relative viability ([3]; first compound 1.265 µM): 0.324
- relative viability ([3]; first compound 4 µM): 0.303
- relative viability (Tanzisertib + AZD7762; first compound 0.08 µM): 0.675
- relative viability (Tanzisertib + AZD7762; first compound 0.253 µM): 0.549
- relative viability (Tanzisertib + AZD7762; first compound 0.8 µM): 0.546
- relative viability (Tanzisertib + AZD7762; first compound 2.53 µM): 0.534
- relative viability (Tanzisertib + AZD7762; first compound 8 µM): 0.18

Cell Line: LXF-289
- relative viability ([1]; first compound 0.08 µM): 0.219
- relative viability ([1]; first compound 0.8 µM): 0.196
- relative viability ([1]; first compound 2.53 µM): 0.178
- relative viability ([1]; first compound 8 µM): 0.207
- relative viability ([2]; first compound 0.04 µM): 0.711
- relative viability ([2]; first compound 0.1265 µM): 0.616
- relative viability ([2]; first compound 0.4 µM): 0.785
- relative viability ([2]; first compound 1.265 µM): 0.691
- relative viability ([2]; first compound 4 µM): 0.534
- relative viability ([3]; first compound 0.04 µM): 0.147
- relative viability ([3]; first compound 0.1265 µM): 0.185
- relative viability ([3]; first compound 0.4 µM): 0.194
- relative viability ([3]; first compound 1.265 µM): 0.168
- relative viability ([3]; first compound 4 µM): 0.175
- relative viability (Tanzisertib + AZD7762; first compound 0.08 µM): 1.21
- relative viability (Tanzisertib + AZD7762; first compound 0.253 µM): 1.09
- relative viability (Tanzisertib + AZD7762; first compound 0.8 µM): 1.19
- relative viability (Tanzisertib + AZD7762; first compound 2.53 µM): 1.1
- relative viability (Tanzisertib + AZD7762; first compound 8 µM): 1.12

Cell Line: LOU-NH91
- relative viability ([1]; first compound 0.08 µM): 0.673
- relative viability ([1]; first compound 0.8 µM): 0.648
- relative viability ([1]; first compound 2.53 µM): 0.696
- relative viability ([1]; first compound 8 µM): 0.58
- relative viability ([2]; first compound 0.04 µM): 0.283
- relative viability ([2]; first compound 0.1265 µM): 0.334
- relative viability ([2]; first compound 0.4 µM): 0.381
- relative viability ([2]; first compound 1.265 µM): 0.33
- relative viability ([2]; first compound 4 µM): 0.316
- relative viability ([3]; first compound 0.04 µM): 0.556
- relative viability ([3]; first compound 0.1265 µM): 0.609
- relative viability ([3]; first compound 0.4 µM): 0.607
- relative viability ([3]; first compound 1.265 µM): 0.504
- relative viability ([3]; first compound 4 µM): 0.417
- relative viability (Tanzisertib + AZD7762; first compound 0.08 µM): 0.781
- relative viability (Tanzisertib + AZD7762; first compound 0.253 µM): 0.782
- relative viability (Tanzisertib + AZD7762; first compound 0.8 µM): 0.806
- relative viability (Tanzisertib + AZD7762; first compound 2.53 µM): 0.746
- relative viability (Tanzisertib + AZD7762; first compound 8 µM): 0.676

Cell Line: NCI-H23
- relative viability ([1]; first compound 0.08 µM): 0.35
- relative viability ([1]; first compound 0.8 µM): 0.422
- relative viability ([1]; first compound 2.53 µM): 0.411
- relative viability ([1]; first compound 8 µM): 0.36
- relative viability ([2]; first compound 0.04 µM): 0.198
- relative viability ([2]; first compound 0.1265 µM): 0.235
- relative viability ([2]; first compound 0.4 µM): 0.203
- relative viability ([2]; first compound 4 µM): 0.21
- relative viability ([3]; first compound 0.04 µM): 0.377
- relative viability ([3]; first compound 0.1265 µM): 0.358
- relative viability ([3]; first compound 0.4 µM): 0.425
- relative viability ([3]; first compound 4 µM): 0.501
- relative viability (Tanzisertib + AZD7762; first compound 0.08 µM): 0.224
- relative viability (Tanzisertib + AZD7762; first compound 0.253 µM): 0.245
- relative viability (Tanzisertib + AZD7762; first compound 0.8 µM): 0.236
- relative viability (Tanzisertib + AZD7762; first compound 2.53 µM): 0.317
- relative viability (Tanzisertib + AZD7762; first compound 8 µM): 0.214

Cell Line: NCI-H1993
- relative viability ([1]; first compound 0.08 µM): 0.586
- relative viability ([1]; first compound 0.8 µM): 0.618
- relative viability ([1]; first compound 2.53 µM): 0.564
- relative viability ([1]; first compound 8 µM): 0.653
- relative viability ([2]; first compound 0.04 µM): 0.857
- relative viability ([2]; first compound 0.1265 µM): 0.923
- relative viability ([2]; first compound 0.4 µM): 0.806
- relative viability ([2]; first compound 1.265 µM): 0.928
- relative viability ([2]; first compound 4 µM): 0.684
- relative viability ([3]; first compound 0.04 µM): 0.579
- relative viability ([3]; first compound 0.1265 µM): 0.591
- relative viability ([3]; first compound 0.4 µM): 0.56
- relative viability ([3]; first compound 1.265 µM): 0.639
- relative viability ([3]; first compound 4 µM): 0.6
- relative viability (Tanzisertib + AZD7762; first compound 0.08 µM): 1.21
- relative viability (Tanzisertib + AZD7762; first compound 0.253 µM): 0.867
- relative viability (Tanzisertib + AZD7762; first compound 0.8 µM): 0.731
- relative viability (Tanzisertib + AZD7762; first compound 2.53 µM): 0.68
- relative viability (Tanzisertib + AZD7762; first compound 8 µM): 0.823

Cell Line: HCC-827
- relative viability ([1]; first compound 0.08 µM): 0.389
- relative viability ([1]; first compound 0.8 µM): 0.435
- relative viability ([1]; first compound 2.53 µM): 0.453
- relative viability ([1]; first compound 8 µM): 0.432
- relative viability ([2]; first compound 0.04 µM): 0.786
- relative viability ([2]; first compound 0.1265 µM): 0.686
- relative viability ([2]; first compound 0.4 µM): 0.698
- relative viability ([2]; first compound 1.265 µM): 0.848
- relative viability ([2]; first compound 4 µM): 0.608
- relative viability ([3]; first compound 0.04 µM): 0.449
- relative viability ([3]; first compound 0.1265 µM): 0.445
- relative viability ([3]; first compound 0.4 µM): 0.447
- relative viability ([3]; first compound 1.265 µM): 0.411
- relative viability ([3]; first compound 4 µM): 0.412
- relative viability (Tanzisertib + AZD7762; first compound 0.08 µM): 0.206
- relative viability (Tanzisertib + AZD7762; first compound 0.253 µM): 0.227
- relative viability (Tanzisertib + AZD7762; first compound 0.8 µM): 0.19
- relative viability (Tanzisertib + AZD7762; first compound 2.53 µM): 0.164
- relative viability (Tanzisertib + AZD7762; first compound 8 µM): 0.147

Cell Line: NCI-H650
- relative viability ([1]; first compound 0.08 µM): 0.738
- relative viability ([1]; first compound 0.8 µM): 0.729
- relative viability ([1]; first compound 2.53 µM): 0.799
- relative viability ([1]; first compound 8 µM): 0.793
- relative viability ([2]; first compound 0.1265 µM): 0.928
- relative viability ([2]; first compound 0.4 µM): 0.844
- relative viability ([2]; first compound 1.265 µM): 0.718
- relative viability ([2]; first compound 4 µM): 0.635
- relative viability ([3]; first compound 0.1265 µM): 0.665
- relative viability ([3]; first compound 0.4 µM): 0.775
- relative viability ([3]; first compound 1.265 µM): 0.644
- relative viability ([3]; first compound 4 µM): 0.588
- relative viability (Tanzisertib + AZD7762; first compound 0.08 µM): 1.03
- relative viability (Tanzisertib + AZD7762; first compound 0.253 µM): 1.32
- relative viability (Tanzisertib + AZD7762; first compound 0.8 µM): 1.01
- relative viability (Tanzisertib + AZD7762; first compound 2.53 µM): 1.3
- relative viability (Tanzisertib + AZD7762; first compound 8 µM): 0.489
